What was measured:
[1] = test system: glyphosate-tolerant Palmer Amaranth; test: Palmer Amaranth shoot and root weight, greenhouse conditions; type: in vivo, Amaranthus palmeri; details: two weeks after spraying
Text: To test the effects of the inventive plant treatment product on weed survival in herbicide-tolerant Palmer Amaranth (Amaranthus palmeri) plants, the plant treatment product (Composition C+herbicide) or herbicide component (alone) were applied to weeds, in greenhouse conditions. […] The measurements of dry shoot mass and dry root mass were taken two weeks after spraying.

[2] = test system: rice of the variety Presidio; test: Rice crop injury in herbicide application program, field trial; details: visually rated 8 May, 0 = no injury, 100 = complete plant death
Text: (§1) To further evaluate the performance of certain embodiments of the present disclosure, bacterial fermentation product of the present disclosure was applied in a common herbicide application program to test herbicide injury tolerance, weed control, grain yield and milling quality in rice. Experiments were established in a field of Crowley fine sandy loam soil (59% sand, […], 12% clay, 0.7% organic matter and pH 5.3). The field was cropped to rice for every third year for many years and was naturally infested with many weeds. Plots consisted of six 18-ft rows, spaced 7.5-in. between rows. The experiment was conducted as a randomized completed block design with four replications. The trial consisted of six treatments (see Table 12, below).
(§2) Rice of the variety Presidio was drill seeded at 70 lb/acre on 5 Apr. Seeds for treatments 2, 4, 5 and 6 were treated with Composition E at 2.3 oz product/CWT prior to planting. Compositions A and B were applied at 7 oz product/acre on 1 May (postemergence), 2 Jun (panicle differentiation, PD) and 19 Jun (boot), using a CO2 pressurized, hand-held sprayer equipped with a boom of three TeeJet 8002VS nozzles spaced 19-in. apart that traveled at 3 mph and delivered at 29 gal/acre at 40 psi. […]

broadleaf signalgrass = test: Weed control in rice field trial: broadleaf signalgrass; type: in vivo; details: visually rated 8 May
Text: as §1, §2

yellow nutsedge = test: Weed control in rice field trial: yellow nutsedge; type: in vivo; details: visually rated 8 May
Text: as §1, §2

carpet weed = test: Weed control in rice field trial: carpet weed; type: in vivo; details: visually rated 8 May
Text: as §1, §2

rice plants [3] = test: Example 5: rice plants stressed by foliar cyhalofop, field trial; type: in vivo; details: cyhalofop 1500 ml/ha, three days after application (FIG. 12A)
Protocol: To test the effect of foliar application of an inventive fermentation culture lysate composition on rice plants stressed by foliar application of the chemical herbicide cyhalofop, field trial(s) were conducted. Control fields (FIG. 11, A; FIG. 12A) were treated with herbicide formulation comprising cyhalofop (foliar application at 1500 ml/ha). Test fields (FIG. 11, B; FIG. 12B) were treated with a combination of the herbicide formulation comprising cyhalofop (foliar application at 1500 ml/ha) and fermentation culture lysate Composition B (foliar application at 500 ml/ha).

rice seedlings = test: Example 2: rice seedlings stressed by post-emergence halosulfuron, field trial; type: in vivo; details: halosulfuron post-emergence 1800 ml/ha, Composition E seed treatment 150 ml/100 kg seed where applied (FIGS. 7A, 7B)
Protocol: To test the effect of seed application of an inventive fermentation culture lysate composition on rice seedlings stressed by post-emergence application of the chemical herbicide halosulfuron, various field trial(s) were conducted. Control fields (FIGS. 6A, 7A) were treated with herbicide formulation comprising halosulfuron (post-emergence at 1800 ml/ha). Test fields (FIGS. 6B, 7B) included seedling treated with the herbicide formulation comprising halosulfuron (post-emergence at 1800 ml/ha) from seeds treated with fermentation culture lysate Composition E (seed treatment at 150 ml/100 kg seed) during planting.

rice plants [4] = test: Example 6: rice plants stressed by foliar profoxydim, field trial; type: in vivo; details: profoxydim 750 ml/ha, three days after application (FIG. 14A)
Protocol: To test the effect of foliar application of inventive fermentation culture lysate composition(s) on rice plants stressed by foliar application of the chemical herbicide profoxydim, field trial(s) were conducted. Control fields (FIG. 13, A; FIG. 14A) were treated with herbicide formulation comprising profoxydim (foliar application at 750 ml/ha). Test fields were treated with either (FIG. 13, B; FIG. 14B) a combination of (i) herbicide formulation comprising profoxydim (foliar application at 750 ml/ha) and (ii) fermentation culture lysate Composition B (foliar application at 500 ml/ha) or (FIG. 13, C; FIG. 14C) a combination of (i) herbicide formulation comprising profoxydim (foliar application at 750 ml/ha), (ii) fermentation culture lysate Composition B (foliar application at 500 ml/ha), and (iii) fermentation culture lysate Composition F (foliar application at 500 ml/ha).

rice plants [5] = test: Example 3: rice plants stressed by foliar propanil, field trial; type: in vivo; details: propanil 4000 ml/ha, three days after application (FIG. 9A)
Protocol: To test the effect of foliar application of an inventive fermentation culture lysate composition on rice plants stressed by foliar application of the chemical herbicide propanil, field trial(s) were conducted. Control fields (FIG. 8, A; FIG. 9A) were treated with herbicide formulation comprising propanil (foliar application at 4000 ml/ha). Test fields (FIG. 8, B; FIG. 9B) were treated with a combination of the herbicide formulation comprising propanil (foliar application at 4000 ml/ha) and fermentation culture lysate Composition B (foliar application at 500 ml/ha).

[6] = glyphosate 1.27 kg/ha, Composition C 1 liter/ha

Structure (SMILES): O=C(O)CNCP(=O)(O)O [Herbicide, glyphosate]
- Palmer Amaranth root dry weight per plant [1, 6]: 0.768
- Palmer Amaranth root fresh weight per plant [1, 6]: 4.70
- Palmer Amaranth shoot dry weight per plant [1, 6]: 5.31
- Palmer Amaranth shoot fresh weight per plant [1, 6]: 15.0
- Palmer Amaranth root dry weight, change vs Untreated Control [1]: −40.9%
- Palmer Amaranth root fresh weight, change vs Untreated Control [1]: −51.3%
- Palmer Amaranth shoot dry weight, change vs Untreated Control [1]: −7.01%
- Palmer Amaranth shoot fresh weight, change vs Untreated Control [1]: −20.6%

Structure (SMILES): CC1(C)CON(Cc2ccccc2Cl)C1=O [clomazone PRE, clomazone]
- Crop injury (%) [2]: 5.0 d^y %
- Weed Control (%) Broadleaf signalgrass (broadleaf signalgrass): 90 b %
- Weed Control (%) Yellow nutsedge (yellow nutsedge): 0 b %
- Weed Control (%) Carpet weed (carpet weed): 0 c %

Structure (SMILES): C[C@@H](Oc1ccc(Oc2ccc(C#N)cc2F)cc1)C(=O)O [cyhalofop]
- phytotoxicity symptoms (rice plants [3]): showed phytotoxicity symptoms

Structure (SMILES): COc1cc(OC)nc(NC(=O)NS(=O)(=O)c2c(C(=O)O)c(Cl)nn2C)n1 [halosulfuron]
- bleaching of rice seedlings (rice seedlings): caused bleaching

Structure (SMILES): CCCC(=NOCC(C)Oc1ccc(Cl)cc1)C1=C(O)CC(C2CCCSC2)CC1=O (stereo not shown) [profoxydim]
- phytotoxicity symptoms (rice plants [4]): showed phytotoxicity symptoms

Structure (SMILES): CCC(=O)Nc1ccc(Cl)c(Cl)c1 [propanil]
- phytotoxicity symptoms (rice plants [5]): showed phytotoxicity symptoms

Source: patent US20220015371A1, “Compositions and Methods for Reducing Pesticide-Induced Plant Damage and Improving Plant Yield” (priority 2018, published 2022)
